# Experimental data taken from PMC2827632 (Biochemistry, 2010).
# How the values were obtained:
# Mtb Lpd R347S = Mtb Lpd R347S (Mycobacterium tuberculosis, UniProt P9WHH9, R347S)
# Mtb Lpd A181V = Mtb Lpd A181V (Mycobacterium tuberculosis, UniProt P9WHH9, A181V); details: 100 µM
structure (smiles),measurement,setting,value
"COc1ccc(C(=O)N2CCC3(CC2)C(=O)N(CC(=O)NCCc2ccc(Cl)cc2Cl)CN3c2ccccc2)c(OC)c1 [compound 5, N-(2,4-dichlorophenethyl)-2-(8-(2,4-dimethoxybenzoyl)-4-oxo-1-phenyl-1,3,8-triazaspiro[4.5]decan-3-yl)acetamide]","Decrease in potency, R347S vs wild-type",Mtb Lpd R347S,more than 100 fold
same,Inhibition of A181V Mtb Lpd,Mtb Lpd A181V,10%
